Data from PubChem BioAssay (NCI).
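GI50 marks 50% less growth. TGI: concentration producing complete growth inhibition.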

What was measured:
Experiment in all cases: DTP human tumour cell line panel, 384-well format
RPMI-8226 leukemia = system: RPMI-8226 leukemia
NCI/ADR-RES ovarian = system: NCI/ADR-RES ovarian
MDA-MB-435 melanoma = system: MDA-MB-435 melanoma
OVCAR-8 ovarian = system: OVCAR-8 ovarian
OVCAR-4 ovarian = system: OVCAR-4 ovarian
OVCAR-5 ovarian = system: OVCAR-5 ovarian
UO-31 renal = system: UO-31 renal
SW-620 colon = system: SW-620 colon
SN12C renal = system: SN12C renal
HOP-62 NSCLC = system: HOP-62 NSCLC
MDA-MB-468 breast = system: MDA-MB-468 breast
KM12 colon = system: KM12 colon
NCI-H522 lung = system: NCI-H522 lung
ACHN renal = system: ACHN renal
BT-549 breast = system: BT-549 breast
A498 renal = system: A498 renal
COLO 205 colon = system: COLO 205 colon
SF-295 CNS = system: SF-295 CNS
HCC-2998 colon = system: HCC-2998 colon
HCT-116 colon = system: HCT-116 colon
786-0 renal = system: 786-0 renal
OVCAR-3 ovarian = system: OVCAR-3 ovarian
A549 NSCLC = system: A549 NSCLC
NCI-H460 NSCLC = system: NCI-H460 NSCLC
DU-145 prostate = system: DU-145 prostate
HS 578T breast = system: HS 578T breast
T-47D breast = system: T-47D breast
UACC-257 melanoma = system: UACC-257 melanoma
HCT-15 colon = system: HCT-15 colon

For `Cc1noc(C)c1-c1ccc2[nH]c(=O)n3c2c1OC[C@@H]3c1ccccn1`, the GI50 (RPMI-8226 leukemia) was 0.133 µM, the TGI (RPMI-8226 leukemia) was 0.533 µM and the GI50 (NCI/ADR-RES ovarian) was 0.653 µM. For the same molecule, the TGI (NCI/ADR-RES ovarian) was 18.5 µM, the GI50 (MDA-MB-435 melanoma) was 13.7 µM and the TGI (MDA-MB-435 melanoma) was over 100 µM. It also gave a GI50 (OVCAR-8 ovarian) of 0.473 µM, a TGI (OVCAR-8 ovarian) of over 100 µM and a GI50 (OVCAR-4 ovarian) of 0.107 µM. For the same molecule, the TGI (OVCAR-4 ovarian) was 0.495 µM, the GI50 (OVCAR-5 ovarian) was 0.529 µM and the TGI (OVCAR-5 ovarian) was over 100 µM. The GI50 (UO-31 renal) was 0.722 µM, the TGI (UO-31 renal) was over 100 µM and the GI50 (SW-620 colon) was over 100 µM. The TGI (SW-620 colon) was over 100 µM, the GI50 (SN12C renal) was 3.69 µM and the TGI (SN12C renal) was over 100 µM. For the same molecule, the GI50 (HOP-62 NSCLC) was 0.304 µM, the TGI (HOP-62 NSCLC) was 62.2 µM and the GI50 (MDA-MB-468 breast) was 0.241 µM. The TGI (MDA-MB-468 breast) was 8.12 µM, the GI50 (KM12 colon) was 1.36 µM and the TGI (KM12 colon) was over 100 µM. The GI50 (NCI-H522 lung) was 0.0766 µM, the TGI (NCI-H522 lung) was 4.8 µM and the GI50 (ACHN renal) was 1.22 µM. It also gave a TGI (ACHN renal) of over 100 µM, a GI50 (BT-549 breast) of 0.293 µM and a TGI (BT-549 breast) of 25.2 µM. The GI50 (A498 renal) was 0.42 µM, the TGI (A498 renal) was over 100 µM and the GI50 (COLO 205 colon) was 0.527 µM. It also gave a TGI (COLO 205 colon) of over 100 µM, a GI50 (SF-295 CNS) of 0.144 µM and a TGI (SF-295 CNS) of 41.8 µM. The GI50 (HCC-2998 colon) was 0.127 µM, the TGI (HCC-2998 colon) was 2.11 µM and the GI50 (HCT-116 colon) was 0.501 µM. It also gave a TGI (HCT-116 colon) of over 100 µM, a GI50 (786-0 renal) of 0.749 µM and a TGI (786-0 renal) of over 100 µM. The GI50 (OVCAR-3 ovarian) was 0.227 µM, the TGI (OVCAR-3 ovarian) was over 100 µM and the GI50 (A549 NSCLC) was 0.656 µM. The TGI (A549 NSCLC) was over 100 µM, the GI50 (NCI-H460 NSCLC) was 2.19 µM and the TGI (NCI-H460 NSCLC) was over 100 µM. It also gave a GI50 (DU-145 prostate) of 14.2 µM, a TGI (DU-145 prostate) of over 100 µM and a GI50 (HS 578T breast) of 0.152 µM. For the same molecule, the TGI (HS 578T breast) was 1.6 µM, the GI50 (T-47D breast) was 0.318 µM and the TGI (T-47D breast) was 47.8 µM. It also gave a GI50 (UACC-257 melanoma) of 0.925 µM, a TGI (UACC-257 melanoma) of over 100 µM and a GI50 (HCT-15 colon) of 0.24 µM. It also gave a TGI (HCT-15 colon) of 12 µM.
